Read-outs that look alike come from different tables or passages of the source.
Experiments:
human glucagon receptor = molecular target: T1, human glucagon receptor (Homo sapiens, UniProt P47871); test: Glucagon Binding Assay (II); conditions: membranes of BHK cells transfected with human glucagon receptor, 125I-glucagon, SPA; read-out: Glu Bd Assay (II) IC50
T1 construct: expressed in transfected cells; host or cells: BHK (baby hamster kidney) cells, membrane preparation
Protocol: Glucagon Binding Assay (II)
BHK (baby hamster kidney cell line) cells are transfected with the human glucagon receptor and a membrane preparation of the cells is prepared.
All steps in the membrane preparation are kept on ice or performed at 4° C. BHK cells are harvested and centrifuged. The pellet is resuspended in homogenisation buffer (25 mM HEPES, pH=7.4, 2.5 mM CaCl2, 1.0 mM MgCl2, 250 mg/L bacitracin, 0.1 mM Pefabloc), homogenised 2×10 sec using Polytron 10-35 homogenizer (Kinematica) and added the same amount of homogenisation buffer as used for resuspension. After centrifugation (15 min at 2000×g) the supernatant is transferred to cold centrifuge tubes and centrifuged for 45 min at 40.000×g. The pellet is resuspended in homogenisation buffer, homogenised 2×10 sec (Polytron) and additional homogenisation buffer is added. The suspension is centrifuged for 45 min at 40.000×g and the pellet is resuspended in resuspension buffer (25 mM HEPES, pH=7.4, 2.5 mM CaCl2, 1.0 mM MgCl2) and homogenised 2×10 sec. (Polytron). […] Stabilisation buffer (25 mM HEPES, pH=7.4, 2.5 mM CaCl2, 1.0 mM MgCl2, 1% bovine serum albumin, 500 mg/L bacitracin, 2.5 M sucrose) is added and the membrane preparation is stored at −80° C.
(§1) The glucagon binding assay is carried out in opti plates (Polystyrene Microplates, Packard). 50 μL assay buffer (25 mM HEPES, pH=7.5, 2.5 mM CaCl2, 1.0 mM MgCl2, 0.003% Tween-20, 0.005% bacitracin, 0.05% sodium azide) and 5 μL glucagon or test compound (in DMSO) are added to each well. […] Finally 50 μL WGA beads containing 1 mg beads are transferred to the well. The opti plates are incubated for 4 hours on a shaker and then settled for 8-48 hours. The opti plates are counted in a Topcounter. Non-specific binding is determined with 500 nM of glucagon.

human GIP receptor = molecular target: T2, human GIP receptor (Homo sapiens, UniProt P48546); test: GIP Binding Assay
T2 construct: expressed in transfected cells; host or cells: BHK (baby hamster kidney) cells, membrane preparation
T2 sequence (P48546 22-466): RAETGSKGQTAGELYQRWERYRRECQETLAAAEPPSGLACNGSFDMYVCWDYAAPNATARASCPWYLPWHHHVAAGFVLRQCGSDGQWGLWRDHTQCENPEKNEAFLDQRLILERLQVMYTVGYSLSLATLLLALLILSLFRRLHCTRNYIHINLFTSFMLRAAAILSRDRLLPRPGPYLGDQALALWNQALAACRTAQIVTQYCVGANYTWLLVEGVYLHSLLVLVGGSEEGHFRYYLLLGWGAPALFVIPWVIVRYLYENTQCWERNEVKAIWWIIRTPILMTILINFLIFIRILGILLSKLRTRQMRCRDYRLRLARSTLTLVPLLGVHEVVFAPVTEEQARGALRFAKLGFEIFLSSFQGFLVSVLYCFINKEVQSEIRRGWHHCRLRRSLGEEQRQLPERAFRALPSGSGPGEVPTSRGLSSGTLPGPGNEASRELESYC
Protocol: BHK (baby hamster kidney cell line) cells are transfected with the human GIP receptor and a membrane preparation of the cells is prepared.
All steps in the membrane preparation are kept on ice or performed at 4° C. BHK cells are harvested and centrifuged. The pellet is resuspended in homogenisation buffer (25 mM) HEPES, pH=7.4, 2.5 mM CaCl2, 1.0 mM MgCl2, 250 mg/L bacitracin, 0.1 mM Pefabloc), homogenised 2×10 sec using Polytron 10-35 homogenizer (Kinematica) and added the same amount of homogenisation buffer as used for resuspension. After centrifugation (15 min at 2000×g) the supernatant is transferred to cold centrifuge tubes and centrifuged for 45 min at 40.000×g. The pellet is resuspended in homogenisation buffer, homogenised 2×10 sec (Polytron) and additional homogenisation buffer is added. The suspension is centrifuged for 45 min at 40.000×g and the pellet is resuspended in resuspension buffer (25 mM HEPES, pH=7.4, 2.5 mM CaCl2, 1.0 mM MgCl2) and homogenised 2×10 sec. (Polytron). […] Stabilisation buffer (25 mM HEPES, pH=7.4, 2.5 mM CaCl2, 1.0 mM MgCl2, 1% bovine serum albumin, 500 mg/L bacitracin, 2.5 M sucrose) is added and the membrane preparation is stored at −80° C.
as §1, with “The GIP” for “The glucagon”, “μL GIP” for “μL glucagon”, “for 3.5” for “for 4”, “a Top-counter.” for “a Topcounter.”, “of GIP.” for “of glucagon.”

[1] = membranes of BHK cells transfected with human GIP receptor, 125I-GIP, SPA, read-out: GIP Bd Assay IC50

T1 sequence (P47871 26-477): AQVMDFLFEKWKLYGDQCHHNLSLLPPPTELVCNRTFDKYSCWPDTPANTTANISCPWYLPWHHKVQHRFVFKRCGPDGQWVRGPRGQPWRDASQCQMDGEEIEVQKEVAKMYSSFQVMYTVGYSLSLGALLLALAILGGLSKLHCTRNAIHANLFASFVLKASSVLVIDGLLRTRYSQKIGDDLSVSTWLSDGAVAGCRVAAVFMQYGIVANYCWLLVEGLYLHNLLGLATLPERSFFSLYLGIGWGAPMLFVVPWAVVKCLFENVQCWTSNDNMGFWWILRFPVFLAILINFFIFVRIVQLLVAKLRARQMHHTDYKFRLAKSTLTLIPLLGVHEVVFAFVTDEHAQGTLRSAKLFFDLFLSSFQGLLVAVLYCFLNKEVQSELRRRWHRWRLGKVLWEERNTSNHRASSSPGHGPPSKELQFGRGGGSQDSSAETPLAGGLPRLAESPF

| SMILES | IC50 (human glucagon receptor) | IC50 (human GIP receptor; [1]) | IC50 (human GIP receptor) |
| --- | --- | --- | --- |
| CC(NC(=O)N(Cc1ccc(C(=O)NC[C@@H](O)C(=O)O)cc1)c1ccc(C2CCCCC2)cc1)c1ccc(Br)cc1 (mixture of isomers) [Example 54, 3-{4-[3-[1(RS)-(4-Bromophenyl)ethyl]-1-(4-cyclohexylphenyl)ureidomethyl]benzoylamino}-2(R)-hydroxypropionic acid] | 390 nM | > 3000 nM |  |
| CC(C)(C)c1ccc(N(Cc2ccc(C(=O)NCC(O)C(=O)O)cc2)C(=O)Nc2ccc(OC(F)(F)F)cc2)cc1 (racemic) [Example 16, (RS)-3-{4-[1-(4-tert-Butylphenyl)-3-(4-trifluoromethoxyphenyl)ureidomethyl]benzoylamino}-2-hydroxypropionic acid] | 61 nM | 205 nM |  |
| O=C(NCC(O)C(=O)O)c1ccc(CN(C(=O)Nc2cc(Cl)cc(Cl)c2)c2ccc(C3=CCCCC3)cc2)cc1 (racemic) [Example 17, (RS)-3-{4-[1-(4-Cyclohex-1-enylphenyl)-3-(3,5-dichlorophenyl)ureidomethyl]benzoylamino}-2-hydroxypropionic acid] | 22 nM |  | 448 nM |
| O=C(NCC(F)C(=O)O)c1ccc(CN(C(=O)Nc2cc(Cl)cc(Cl)c2)c2ccc(C3=CCCCC3)cc2)cc1 (racemic) [Example 23, (RS)-3-{4-[1-(4-Cyclohex-1-enylphenyl)3-(3,5-dichlorophenyl)ureidomethyl]benzoylamino}-2-fluoropropionic acid] | 40 nM | 516 nM |  |
| COc1cc(NC(=O)N(Cc2ccc(C(=O)NC[C@@H](O)C(=O)O)cc2)c2ccc(C3CCCCC3)cc2)cc(C(F)(F)F)c1 [Example 1, (R)-3-{4-[1-(4-Cyclohexylphenyl)-3-(3methoxy-5-trifluoromethylphenyl)ureidomethyl]benzoylamino}-2-hydroxypropionic acid] | 29 nM | 701 nM |  |
| O=C(NC[C@@H](O)C(=O)O)c1ccc(CN(C(=O)Nc2cc(C(F)(F)F)cc(C(F)(F)F)c2)c2ccc(C3CCCCC3)cc2)cc1 [Example 2, (R)-3-{4-[3-(3,5-Bis(trifluoromethyl)phenyl)-1-(4-cyclohexylphenyl)ureidomethyl]benzoylamino}-2-hydroxypropionic acid] | 12 nM | 269 nM |  |
| O=C(NC[C@@H](O)C(=O)O)c1ccc(CN(C(=O)Nc2cccc(Br)c2)c2ccc(C3CCCCC3)cc2)cc1 [Example 3, (R)-3-{4-[3-(3-Bromophenyl)-1-(4-cyclohexylphenyl)ureidomethyl]benzoylamino}-2-hydroxypropionic acid] | 18 nM | 653 nM |  |
| O=C(NC[C@@H](O)C(=O)O)c1ccc(CN(C(=O)Nc2ccc(OC(F)(F)F)cc2)c2ccc(C3CCCCC3)cc2)cc1 [Example 4, (R)-3-{4-[1-(4-Cyclohexylphenyl)-3-(4-trifluoromethoxyphenyl)ureidomethyl]benzoylamino}-2-hydroxypropionic acid] | 23 nM | 124 nM |  |
| O=C(NC[C@@H](O)C(=O)O)c1ccc(CN(C(=O)Nc2cccc(C(F)(F)F)c2)c2ccc(C3CCCCC3)cc2)cc1 [Example 5, (R)-3-{4-[1-(4-Cyclohexylphenyl)-3-(3-trifluoromethylphenyl)ureidomethyl]benzoylamino}-2-hydroxypropionic acid] | 26 nM | 519 nM |  |
| O=C(NC[C@@H](O)C(=O)O)c1ccc(CN(C(=O)Nc2cc(F)cc(C(F)(F)F)c2)c2ccc(C3CCCCC3)cc2)cc1 [Example 6, (R)-3-{4-[1-(4-Cyclohexylphenyl)-3-(3-fluoro-5-trifluoromethylphenyl)ureidomethyl]benzoylamino}-2-hydroxypropionic acid] | 10 nM | 294 nM |  |
| N#Cc1cc(NC(=O)N(Cc2ccc(C(=O)NC[C@@H](O)C(=O)O)cc2)c2ccc(C3=CCCCC3)cc2)cc(C(F)(F)F)c1 [Example 7, (R)-3-{4-[3-(3-Cyano-5-trifluoromethylphenyl)-1-(4-cyclohex-1-enylphenyl)ureidomethyl]benzoylamino}-2-hydroxypropionic acid] | 26 nM | 292 nM |  |
| N#Cc1cc(NC(=O)N(Cc2ccc(C(=O)NC[C@@H](O)C(=O)O)cc2)c2ccc(C3CCCCC3)cc2)cc(C(F)(F)F)c1 [Example 8, (R)-3-{4-[3-(3-Cyano-5-trifluoromethylphenyl)-1-(4-cyclohexylphenyl)ureidomethyl]benzoylamino}-2-hydroxypropionic acid] | 14 nM | 316 nM |  |
| O=C(NC[C@@H](O)C(=O)O)c1ccc(CN(C(=O)Nc2cc(Br)cc(C(F)(F)F)c2)c2ccc(C3=CCCCC3)cc2)cc1 [Example 9, (R)-3-{4-[3-(3-Bromo-5-trifluoromethylphenyl)-1-(4-cyclohex-1-enylphenyl)ureidomethyl]benzoylamino}-2-hydroxypropionic acid] | 11 nM | 285 nM |  |
| COc1cc(NC(=O)N(Cc2ccc(C(=O)NC[C@@H](O)C(=O)O)cc2)c2ccc(C3=CCCCC3)cc2)cc(C(F)(F)F)c1 [Example 10, (R)-3-{4-[1-(4-Cyclohex-1-enylphenyl)-3-(3-methoxy-5-trifluoromethylphenyl)ureidomethyl]benzoylamino}-2-hydroxypropionic acid] | 19 nM | 294 nM |  |
| O=C(NC[C@@H](O)C(=O)O)c1ccc(CN(C(=O)Nc2cccc(Br)c2)c2ccc(C3=CCCCC3)cc2)cc1 [Example 11, (R)-3-{4-[3-(3-Bromophenyl)-1-(4-cyclohex-1-enylphenyl)ureidomethyl]benzoylamino}-2-hydroxypropionic acid] | 41 nM | 914 nM |  |
| O=C(NC[C@@H](O)C(=O)O)c1ccc(CN(C(=O)Nc2cc(Br)cc(C(F)(F)F)c2)c2ccc(C3CCCCC3)cc2)cc1 [Example 12, (R)-3-{4-[3-(3-Bromo-5-trifluoromethylphenyl)-1-(4-cyclohexylphenyl)ureidomethyl]benzoylamino}-2-hydroxypropionic acid] | 10 nM | 204 nM |  |
| Cc1cc(NC(=O)N(Cc2ccc(C(=O)NC[C@@H](O)C(=O)O)cc2)[C@H]2CC[C@H](C(C)(C)C)CC2)cc(C(F)(F)F)c1 [Example 15, Trans-(R)-3-{4-[3-(3-methyl-5-trifluoromethylphenyl)-1-(4-tert-butylcyclohexyl)ureidomethyl]benzoylamino}-2-hydroxypropionic acid] | 35 nM | 395 nM |  |
| O=C(NC[C@H](O)C(=O)O)c1ccc(CN(C(=O)Nc2cc(Cl)cc(Cl)c2)c2ccc(C3=CCCCC3)cc2)cc1 [Example 18, (S)-3-{4-[1-(4-Cyclohex-1-enylphenyl)-3-(3,5-dichlorophenyl)ureidomethyl]benzoylamino}-2-hydroxypropionic acid] | 177 nM | > 1500 nM |  |

Source: patent US6953812B2, “Glucagon antagonists/inverse agonists” (Novo Nordisk, Inc., priority 2000, dated 2005)
